Reference: PubChem BioAssay (NCI)
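Growth conditions: 96-well plates. Treatment: test compound, 48 hours, 5 concentrations. Analysis: linear interpolation between bracketing concentrations; unreached endpoints set to highest concentration. TGI: total growth inhibition.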

Columns and labels:
Assay in all cases: NCI-60 cell line screen, 48 h
[1] = test system: KM12 colon
[2] = test system: SK-OV-3 ovarian
[3] = test system: SNB-75 CNS
[4] = test system: BT-549 breast
[5] = test system: SK-MEL-5 melanoma
[6] = test system: LOX IMVI melanoma
[7] = test system: CCRF-CEM leukemia
[8] = test system: HCT-116 colon
[9] = test system: OVCAR-5 ovarian
[10] = test system: SK-MEL-2 melanoma
[11] = test system: HCC-2998 colon
[12] = test system: IGROV1 ovarian
[13] = test system: UO-31 renal
[14] = test system: COLO 205 colon
[15] = test system: EKVX NSCLC
[16] = test system: SF-295 CNS
[17] = test system: HL-60(TB) leukemia
[18] = test system: NCI-H460 lung
[19] = test system: RXF 393 renal
[20] = test system: SW-620 colon
[21] = test system: SF-268 CNS
[22] = test system: HOP-92 NSCLC
[23] = test system: UACC-257 melanoma
[24] = test system: A498 renal
[25] = test system: MDA-N
[26] = test system: TK-10 renal
[27] = test system: ACHN renal
[28] = test system: 786-0 renal
[29] = test system: OVCAR-3 ovarian
[30] = test system: CAKI-1 renal
[31] = test system: SK-MEL-28 melanoma
[32] = test system: HS 578T breast
[33] = test system: RPMI-8226 leukemia
[34] = test system: HT29 colon
[35] = test system: MOLT-4 leukemia
[36] = test system: NCI-H522 lung
[37] = test system: NCI-H23 lung
[38] = test system: PC-3 prostate
[39] = test system: SN12C renal
[40] = test system: MCF7 breast
[41] = test system: MDA-MB-435
[42] = test system: OVCAR-4 ovarian
[43] = test system: U251 CNS
[44] = test system: NCI-H226 lung
[45] = test system: NCI/ADR-RES ovarian
[46] = test system: MALME-3M melanoma
[47] = test system: K-562 leukemia
[48] = test system: MDA-MB-231 breast
[49] = test system: SNB-19 CNS
[50] = test system: HOP-62 NSCLC
[51] = test system: SF-539 CNS
[52] = test system: A549 NSCLC
[53] = test system: SR leukemia
[54] = test system: M14 melanoma
[55] = test system: DU-145 prostate
[56] = test system: UACC-62 melanoma
[57] = test system: T-47D breast
[58] = test system: HCT-15 colon

SMILES: CC(=O)OCC(Br)C1(C)CCC(C(C)(C)Br)O1 (stereo not given)
- TGI [1]: > 100 µM
- TGI [2]: > 100 µM
- TGI [3]: > 100 µM
- TGI [4]: > 100 µM
- TGI [5]: > 100 µM
- TGI [6]: > 100 µM
- TGI [7]: > 100 µM
- TGI [8]: > 100 µM
- TGI [9]: > 100 µM
- TGI [10]: > 100 µM
- TGI [11]: > 100 µM
- TGI [12]: > 100 µM
- TGI [13]: > 100 µM
- TGI [14]: > 100 µM
- TGI [15]: > 100 µM
- TGI [16]: > 100 µM
- TGI [17]: > 100 µM
- TGI [18]: > 100 µM
- TGI [19]: > 100 µM
- TGI [20]: > 100 µM
- TGI [21]: > 100 µM
- TGI [22]: > 100 µM
- TGI [23]: 45.2 µM
- TGI [24]: > 100 µM
- TGI [25]: > 100 µM
- TGI [26]: > 100 µM
- TGI [27]: > 100 µM
- TGI [28]: > 100 µM
- TGI [29]: > 100 µM
- TGI [30]: > 100 µM
- TGI [31]: > 100 µM
- TGI [32]: > 100 µM
- TGI [33]: > 100 µM
- TGI [34]: > 100 µM
- TGI [35]: > 100 µM
- TGI [36]: 86.7 µM
- TGI [37]: > 100 µM
- TGI [38]: > 100 µM
- TGI [39]: > 100 µM
- TGI [40]: > 100 µM
- TGI [41]: > 100 µM
- TGI [42]: 72 µM
- TGI [43]: > 100 µM
- TGI [44]: > 100 µM
- TGI [45]: > 100 µM
- TGI [46]: > 100 µM
- TGI [47]: > 100 µM
- TGI [48]: > 100 µM
- TGI [49]: > 100 µM
- TGI [50]: > 100 µM
- TGI [51]: > 100 µM
- TGI [52]: > 100 µM
- TGI [53]: > 100 µM
- TGI [54]: > 100 µM
- TGI [55]: > 100 µM

SMILES: Cc1ccc(S(=O)(=O)NNC2Oc3cc4c(cc3C(c3ccccc3O)C2C)OCO4)cc1 (stereo not given)
- TGI [1]: 26.5 µM
- TGI [2]: 37.9 µM
- TGI [3]: 23.3 µM
- TGI [4]: 27.3 µM
- TGI [5]: 27.6 µM
- TGI [56]: 29.8 µM
- TGI [6]: 32.8 µM
- TGI [7]: 34.5 µM
- TGI [8]: 22.1 µM
- TGI [9]: 30.5 µM
- TGI [10]: 22.8 µM
- TGI [11]: 32.6 µM
- TGI [12]: 27.2 µM
- TGI [57]: 25.6 µM
- TGI [13]: 23 µM
- TGI [14]: 29.5 µM
- TGI [15]: 23.8 µM
- TGI [16]: 24.4 µM
- TGI [17]: 40.8 µM
- TGI [18]: 24.5 µM
- TGI [19]: 19.3 µM
- TGI [20]: 29.7 µM
- TGI [21]: 28.5 µM
- TGI [22]: 31.7 µM
- TGI [23]: 23.3 µM
- TGI [24]: 30.7 µM
- TGI [25]: 27 µM
- TGI [26]: 31.3 µM
- TGI [27]: 26 µM
- TGI [29]: 23.7 µM
- TGI [30]: 28.9 µM
- TGI [31]: 30.1 µM
- TGI [58]: 32 µM
- TGI [32]: 29.5 µM
- TGI [33]: 47.1 µM
- TGI [34]: 27.6 µM
- TGI [35]: 42.7 µM
- TGI [36]: 27.3 µM
- TGI [37]: 33 µM
- TGI [38]: 22.8 µM
- TGI [39]: 30.5 µM
- TGI [40]: 35.2 µM
- TGI [41]: 26.8 µM
- TGI [43]: 22 µM
- TGI [44]: 28.3 µM
- TGI [46]: 25.9 µM
- TGI [47]: 50.2 µM
- TGI [48]: 31.4 µM
- TGI [49]: 25.6 µM
- TGI [50]: 29.6 µM
- TGI [51]: 33.3 µM
- TGI [52]: 26.8 µM
- TGI [53]: 33.4 µM
- TGI [54]: 26.2 µM
- TGI [55]: 29.2 µM
